{"source": "paper PMC3602277", "about": "(Bioorganic & medicinal chemistry, 2013)", "key": {"A431 cancer cells [1]": {"tested_on": "A431 cancer cells"}, "EGFR [2]": {"tested_on": "EGFR", "conditions": "read-out: EGFR IC50; cited from earlier work"}, "A431 cancer cells [3]": {"tested_on": "A431 cancer cells", "test": "A431 cytotoxicity, CYQUANT cell proliferation assay", "conditions": "ratio of IC50 vs cisplatin 23"}, "VEGFR-2": {"target": "VEGFR-2 (Homo sapiens, UniProt P35968)", "sequence (P35968 20-1356)": "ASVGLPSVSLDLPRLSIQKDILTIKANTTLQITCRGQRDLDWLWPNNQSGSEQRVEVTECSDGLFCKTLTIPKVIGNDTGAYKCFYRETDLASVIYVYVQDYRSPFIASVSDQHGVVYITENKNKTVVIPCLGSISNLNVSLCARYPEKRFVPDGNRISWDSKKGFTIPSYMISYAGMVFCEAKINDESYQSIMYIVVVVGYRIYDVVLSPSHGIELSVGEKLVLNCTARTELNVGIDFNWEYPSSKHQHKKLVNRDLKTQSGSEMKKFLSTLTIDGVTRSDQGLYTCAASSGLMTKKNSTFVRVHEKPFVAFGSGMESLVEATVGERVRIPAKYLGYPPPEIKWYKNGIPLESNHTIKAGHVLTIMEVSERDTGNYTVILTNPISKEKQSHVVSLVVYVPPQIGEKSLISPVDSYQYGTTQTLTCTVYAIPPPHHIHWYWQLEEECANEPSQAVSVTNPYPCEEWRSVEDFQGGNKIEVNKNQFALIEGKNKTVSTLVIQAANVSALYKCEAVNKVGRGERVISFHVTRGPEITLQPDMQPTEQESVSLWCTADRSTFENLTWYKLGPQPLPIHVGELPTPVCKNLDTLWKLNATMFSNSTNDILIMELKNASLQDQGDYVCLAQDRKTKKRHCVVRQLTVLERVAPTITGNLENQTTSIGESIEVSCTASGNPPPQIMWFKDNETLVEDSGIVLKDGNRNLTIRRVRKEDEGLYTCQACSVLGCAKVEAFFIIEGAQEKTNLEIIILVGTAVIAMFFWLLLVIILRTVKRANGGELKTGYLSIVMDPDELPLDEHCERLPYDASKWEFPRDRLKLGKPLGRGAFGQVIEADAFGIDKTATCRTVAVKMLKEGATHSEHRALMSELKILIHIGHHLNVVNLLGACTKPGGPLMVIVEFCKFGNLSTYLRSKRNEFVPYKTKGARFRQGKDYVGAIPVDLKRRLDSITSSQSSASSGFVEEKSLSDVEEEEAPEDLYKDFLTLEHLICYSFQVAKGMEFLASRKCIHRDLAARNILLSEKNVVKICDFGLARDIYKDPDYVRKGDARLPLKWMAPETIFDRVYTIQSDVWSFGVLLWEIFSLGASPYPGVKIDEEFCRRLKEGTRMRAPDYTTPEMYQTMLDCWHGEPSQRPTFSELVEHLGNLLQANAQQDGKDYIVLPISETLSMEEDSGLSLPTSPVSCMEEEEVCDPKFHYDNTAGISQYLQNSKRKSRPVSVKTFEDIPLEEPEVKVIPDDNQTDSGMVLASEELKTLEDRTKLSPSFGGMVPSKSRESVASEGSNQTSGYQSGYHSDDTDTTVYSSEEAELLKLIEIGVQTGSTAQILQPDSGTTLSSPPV", "test": "Phosphotyrosine ELISA cytoblot, VEGFR-2 kinase inhibition in whole cells", "format": "cell-based", "conditions": "for fold less active than standard 20 in VEGFR-2 inhibition assay: ratio of IC50 vs semaxanib 20"}, "PDGFR-β": {"target": "PDGFR-β (Homo sapiens, UniProt P09619)", "sequence (P09619 33-1106)": "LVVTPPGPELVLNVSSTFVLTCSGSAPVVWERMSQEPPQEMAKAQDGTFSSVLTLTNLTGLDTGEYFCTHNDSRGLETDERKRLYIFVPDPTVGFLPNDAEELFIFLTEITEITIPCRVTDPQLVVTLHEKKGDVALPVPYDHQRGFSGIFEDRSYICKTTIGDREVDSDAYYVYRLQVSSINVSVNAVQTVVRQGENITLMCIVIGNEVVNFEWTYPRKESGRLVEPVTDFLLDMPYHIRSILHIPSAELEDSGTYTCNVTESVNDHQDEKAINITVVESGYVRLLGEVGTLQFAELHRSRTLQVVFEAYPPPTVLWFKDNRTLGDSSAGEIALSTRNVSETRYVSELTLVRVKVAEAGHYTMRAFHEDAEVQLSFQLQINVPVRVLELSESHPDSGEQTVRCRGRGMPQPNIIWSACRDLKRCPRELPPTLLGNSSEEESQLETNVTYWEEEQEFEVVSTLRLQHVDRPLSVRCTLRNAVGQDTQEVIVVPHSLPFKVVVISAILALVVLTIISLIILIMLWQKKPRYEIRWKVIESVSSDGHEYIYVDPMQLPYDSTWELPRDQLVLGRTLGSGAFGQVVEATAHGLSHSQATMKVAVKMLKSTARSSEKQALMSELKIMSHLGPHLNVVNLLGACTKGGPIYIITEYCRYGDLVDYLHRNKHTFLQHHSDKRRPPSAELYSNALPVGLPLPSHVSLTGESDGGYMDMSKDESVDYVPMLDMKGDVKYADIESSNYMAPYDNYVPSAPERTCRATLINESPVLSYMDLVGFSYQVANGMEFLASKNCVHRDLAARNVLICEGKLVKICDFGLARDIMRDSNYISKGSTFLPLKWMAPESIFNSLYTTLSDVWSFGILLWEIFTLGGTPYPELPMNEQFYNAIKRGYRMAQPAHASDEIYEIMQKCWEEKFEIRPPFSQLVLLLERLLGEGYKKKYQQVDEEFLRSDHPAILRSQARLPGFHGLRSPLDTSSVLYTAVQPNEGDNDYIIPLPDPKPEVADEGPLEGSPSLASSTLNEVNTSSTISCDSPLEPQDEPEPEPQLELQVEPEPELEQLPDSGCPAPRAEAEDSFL", "test": "Phosphotyrosine ELISA cytoblot, PDGFR-β kinase inhibition in whole cells", "format": "cell-based"}, "EGFR [4]": {"target": "EGFR (Homo sapiens, UniProt P00533)", "sequence (P00533 25-1210)": "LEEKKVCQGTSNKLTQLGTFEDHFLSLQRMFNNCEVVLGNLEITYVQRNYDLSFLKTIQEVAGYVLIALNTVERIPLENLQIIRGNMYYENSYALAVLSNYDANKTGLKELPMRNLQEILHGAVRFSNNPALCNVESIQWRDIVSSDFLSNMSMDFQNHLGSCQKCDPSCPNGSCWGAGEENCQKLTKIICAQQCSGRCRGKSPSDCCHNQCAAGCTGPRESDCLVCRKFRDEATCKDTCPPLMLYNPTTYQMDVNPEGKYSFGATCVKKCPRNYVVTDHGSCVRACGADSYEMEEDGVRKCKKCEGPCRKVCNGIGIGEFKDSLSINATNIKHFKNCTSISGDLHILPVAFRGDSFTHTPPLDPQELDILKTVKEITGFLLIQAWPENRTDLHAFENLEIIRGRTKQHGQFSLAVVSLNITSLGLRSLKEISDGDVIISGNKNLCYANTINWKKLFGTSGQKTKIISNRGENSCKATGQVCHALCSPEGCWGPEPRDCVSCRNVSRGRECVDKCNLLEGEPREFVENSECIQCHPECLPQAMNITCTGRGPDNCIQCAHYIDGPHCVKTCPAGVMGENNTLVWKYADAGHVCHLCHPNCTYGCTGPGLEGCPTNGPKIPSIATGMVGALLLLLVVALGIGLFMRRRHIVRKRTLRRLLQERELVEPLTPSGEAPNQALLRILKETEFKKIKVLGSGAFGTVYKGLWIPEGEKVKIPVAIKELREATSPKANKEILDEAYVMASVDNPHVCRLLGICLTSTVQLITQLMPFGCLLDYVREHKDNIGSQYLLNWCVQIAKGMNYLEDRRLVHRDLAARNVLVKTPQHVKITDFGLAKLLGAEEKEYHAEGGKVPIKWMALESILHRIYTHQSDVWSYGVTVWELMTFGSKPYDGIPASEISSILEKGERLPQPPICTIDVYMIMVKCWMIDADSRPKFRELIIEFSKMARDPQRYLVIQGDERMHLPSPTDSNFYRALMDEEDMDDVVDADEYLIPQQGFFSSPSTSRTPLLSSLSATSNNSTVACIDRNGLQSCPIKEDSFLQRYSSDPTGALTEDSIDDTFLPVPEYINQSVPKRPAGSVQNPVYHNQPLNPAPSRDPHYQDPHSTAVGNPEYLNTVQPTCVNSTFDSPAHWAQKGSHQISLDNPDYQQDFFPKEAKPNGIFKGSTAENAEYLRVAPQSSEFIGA", "test": "Phosphotyrosine ELISA cytoblot, EGFR kinase inhibition in whole cells", "format": "cell-based"}}}
{"smiles": "[NH2][Pt]([NH2])([Cl])[Cl]", "note": "[Cisplatin (23), cisplatin]", "values": [{"measurement": "IC50", "setting": "A431 cancer cells [1]", "value": "10.6 ± 2.9", "unit": "µM"}]}
{"smiles": "Clc1cccc(Nc2ncnc3[nH]c4ccccc4c23)c1", "note": "[Compound 1]", "values": [{"measurement": "IC50", "setting": "EGFR [2]", "value": 6, "unit": "nM"}]}
{"smiles": "Nc1nc(Nc2ccc(Cl)cc2)c2c(n1)[nH]c1cccc(Cl)c12", "note": "[Compound 5, 5-chloro-N^4-(4-chlorophenyl)-9H-pyrimido[4,5-b]indole-2,4-diamine]", "values": [{"measurement": "fold less potent than standard 23 in A431 cytotoxicity assay", "setting": "A431 cancer cells [3]", "value": 4, "unit": "fold"}, {"measurement": "fold more potent than erlotinib in VEGFR-2 inhibition assay", "setting": "VEGFR-2; ratio of IC50 vs erlotinib", "value": 9.4, "unit": "fold"}, {"measurement": "fold more potent than sunitinib in VEGFR-2 inhibition assay", "setting": "VEGFR-2; ratio of IC50 vs sunitinib", "value": 1.4, "unit": "fold"}, {"measurement": "potency relative to standard 20 in VEGFR-2 inhibition assay", "setting": "VEGFR-2; vs semaxanib 20", "value": "equipotent"}]}
{"smiles": "COc1cccc(Nc2nc(N)nc3[nH]c4cccc(Cl)c4c23)c1", "note": "[Compound 8, 5-chloro-N^4-(3-methoxyphenyl)-9H-pyrimido[4,5-b]indole-2,4-diamine]", "values": [{"measurement": "fold less active than standard 22 in PDGFR-β inhibition assay", "setting": "PDGFR-β; ratio of IC50 vs DMBI 22", "value": "about 13.5 fold"}, {"measurement": "fold less active than erlotinib in PDGFR-β inhibition assay", "setting": "PDGFR-β; ratio of IC50 vs erlotinib", "value": 4, "unit": "fold"}, {"measurement": "fold less active than corresponding 2-amino pivaloyl compound, VEGFR-2", "setting": "VEGFR-2; 7 vs 13, 8 vs 14", "value": "~1.7", "unit": "fold"}, {"measurement": "fold less active than standard 20 in VEGFR-2 inhibition assay", "setting": "VEGFR-2", "value": 7, "unit": "fold"}]}
{"smiles": "CC(C)c1ccc(Nc2nc(NC(=O)C(C)(C)C)nc3[nH]c4cccc(Cl)c4c23)cc1", "note": "[Compound 10, N-{5-chloro-4-[(4-isopropylphenyl)amino]-9H-pyrimido[4,5-b]indol-2-yl}-2,2-dimethylpropanamide]", "values": [{"measurement": "fold less active than standard 20 in VEGFR-2 inhibition assay", "setting": "VEGFR-2", "value": "~4", "unit": "fold"}]}
{"smiles": "CC(C)(C)C(=O)Nc1nc(Nc2ccc(Cl)cc2)c2c(n1)[nH]c1cccc(Cl)c12", "note": "[Compound 11, N-{5-chloro-4-[(4-chlorophenyl)amino]-9H-pyrimido[4,5-b]indol-2-yl}-2,2-dimethylpropanamide]", "values": [{"measurement": "fold less potent than standard 23 in A431 cytotoxicity assay", "setting": "A431 cancer cells [3]", "value": 5, "unit": "fold"}, {"measurement": "fold less active than standard 20 in VEGFR-2 inhibition assay", "setting": "VEGFR-2", "value": 2, "unit": "fold"}]}
{"smiles": "CC(C)(C)C(=O)Nc1nc(Nc2cccc(F)c2)c2c(n1)[nH]c1cccc(Cl)c12", "note": "[Compound 13, N-{5-chloro-4-[(3-fluorophenyl)amino]-9H-pyrimido[4,5-b]indol-2-yl}-2,2-dimethylpropanamide]", "values": [{"measurement": "fold less potent than standard 21 in EGFR inhibition assay", "setting": "EGFR [4]; ratio of IC50 vs PD153035 21", "value": 150, "unit": "fold"}, {"measurement": "fold less active than erlotinib in EGFR inhibition assay", "setting": "EGFR [4]; ratio of IC50 vs erlotinib", "value": 25, "unit": "fold"}, {"measurement": "fold less active than standard 20 in VEGFR-2 inhibition assay", "setting": "VEGFR-2", "value": "about 2.5 fold"}]}
{"smiles": "COc1cccc(Nc2nc(NC(=O)C(C)(C)C)nc3[nH]c4cccc(Cl)c4c23)c1", "note": "[Compound 14, N-{5-chloro-4-[(3-methoxyphenyl)amino]-9H-pyrimido[4,5-b]indol-2-yl}-2,2-dimethylpropanamide]", "values": [{"measurement": "fold less active than standard 20 in VEGFR-2 inhibition assay", "setting": "VEGFR-2", "value": "~3.5", "unit": "fold"}]}
